Three compounds from ChEMBL document CHEMBL1201862, “PubChem BioAssay data set” (2004) can be followed below.

Calls of active or inactive are those of the source.

One experiment concerns BJ. The experiment in a line: BJ-TERT-LT-ST fibroblast viability loss – cell-based, RAS-independent, luminescence, dose response (AID 1935).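 Also: BJ fibroblasts immortalized with TERT plus LT and ST oncogenes.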 The class given is functional. The settings on record: Homo sapiens.
The target of experiment [1] is T1, Short transient receptor potential channel 4 (Mus musculus, UniProt Q9QUQ5).
T1 sequence (Q9QUQ5 whole entry): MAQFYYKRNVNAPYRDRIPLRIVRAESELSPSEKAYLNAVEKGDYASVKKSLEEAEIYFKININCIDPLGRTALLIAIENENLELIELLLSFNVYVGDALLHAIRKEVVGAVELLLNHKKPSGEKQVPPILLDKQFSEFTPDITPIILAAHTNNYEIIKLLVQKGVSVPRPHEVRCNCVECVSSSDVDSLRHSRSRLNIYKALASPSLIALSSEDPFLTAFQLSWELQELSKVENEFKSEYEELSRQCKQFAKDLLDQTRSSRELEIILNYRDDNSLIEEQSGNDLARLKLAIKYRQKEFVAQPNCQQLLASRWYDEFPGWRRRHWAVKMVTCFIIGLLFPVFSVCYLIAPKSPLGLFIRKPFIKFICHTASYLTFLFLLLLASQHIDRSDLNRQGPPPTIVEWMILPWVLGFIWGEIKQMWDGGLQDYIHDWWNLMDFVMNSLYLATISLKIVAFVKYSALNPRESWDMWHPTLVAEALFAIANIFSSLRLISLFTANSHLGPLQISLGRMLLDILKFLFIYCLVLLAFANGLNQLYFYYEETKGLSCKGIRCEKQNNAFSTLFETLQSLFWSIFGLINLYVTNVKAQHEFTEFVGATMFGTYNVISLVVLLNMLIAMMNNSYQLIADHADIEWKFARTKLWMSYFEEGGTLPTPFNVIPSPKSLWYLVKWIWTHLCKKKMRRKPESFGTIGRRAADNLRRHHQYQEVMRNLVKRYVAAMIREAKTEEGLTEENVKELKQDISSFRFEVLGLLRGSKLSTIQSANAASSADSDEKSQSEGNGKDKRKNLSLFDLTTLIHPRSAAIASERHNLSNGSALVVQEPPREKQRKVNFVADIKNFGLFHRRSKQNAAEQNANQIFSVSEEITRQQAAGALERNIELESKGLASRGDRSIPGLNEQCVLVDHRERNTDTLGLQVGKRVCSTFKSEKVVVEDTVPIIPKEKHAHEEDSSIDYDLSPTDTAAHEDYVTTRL
The experiment in a line: block of DAMGO-driven TRPC4 calcium entry – cell-based, HEK293 TRPC4/mu-opioid, Fluo-4 calcium, dose response (AID 434942).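 Also: potency of inhibitors blocking the TRPC4 calcium response.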 It is filed as functional.

A short description of experiment [2]: viability of PTEN-deleted HCT116 cells – cell-based, HCT116 PTEN knockout, dose response (AID 1047).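 Also: HCT116 colon tumor cells with PTEN knocked out; cells exposed to compound for 60 hours before readout; potency for loss of cell viability measured by luminescence.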 The class given is functional.
The target of a further experiment is Paired box protein Pax-8 (Homo sapiens, UniProt Q06710). The experiment in a line: PAX8 transcriptional activity inhibition in RMG-I – RMG-I cells, luciferase, cherry-pick, dose response (AID 687027).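 Also: luciferase reporter driven by Pax8 target thyroperoxidase promoter measured by SteadyGlo luminescence.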 The class given is functional, cell-based.
The next experiment concerns the target T2, Caspase-3 (Homo sapiens, UniProt P42574).
T2 sequence (P42574 whole entry): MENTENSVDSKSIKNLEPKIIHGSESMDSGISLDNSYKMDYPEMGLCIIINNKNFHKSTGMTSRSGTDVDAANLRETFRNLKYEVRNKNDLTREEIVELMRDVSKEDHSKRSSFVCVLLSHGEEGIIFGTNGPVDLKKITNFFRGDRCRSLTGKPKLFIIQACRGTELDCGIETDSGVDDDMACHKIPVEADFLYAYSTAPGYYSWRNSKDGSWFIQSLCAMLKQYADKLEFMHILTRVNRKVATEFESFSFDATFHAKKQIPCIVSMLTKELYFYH
The experiment can be described thus: SAR Analysis of small molecule inhibitors of Sentrin-specific proteases (SENPs) using a Caspase-3 Selectivity assay. [Related pubchem assays (depositor defined):AID2540, AID2599, AID434973, AID489001]. The class given is functional.

In experiment [3] the target is T3, Sentrin-specific protease 6 (Homo sapiens, UniProt Q9GZR1).
T3 sequence (Q9GZR1 whole entry): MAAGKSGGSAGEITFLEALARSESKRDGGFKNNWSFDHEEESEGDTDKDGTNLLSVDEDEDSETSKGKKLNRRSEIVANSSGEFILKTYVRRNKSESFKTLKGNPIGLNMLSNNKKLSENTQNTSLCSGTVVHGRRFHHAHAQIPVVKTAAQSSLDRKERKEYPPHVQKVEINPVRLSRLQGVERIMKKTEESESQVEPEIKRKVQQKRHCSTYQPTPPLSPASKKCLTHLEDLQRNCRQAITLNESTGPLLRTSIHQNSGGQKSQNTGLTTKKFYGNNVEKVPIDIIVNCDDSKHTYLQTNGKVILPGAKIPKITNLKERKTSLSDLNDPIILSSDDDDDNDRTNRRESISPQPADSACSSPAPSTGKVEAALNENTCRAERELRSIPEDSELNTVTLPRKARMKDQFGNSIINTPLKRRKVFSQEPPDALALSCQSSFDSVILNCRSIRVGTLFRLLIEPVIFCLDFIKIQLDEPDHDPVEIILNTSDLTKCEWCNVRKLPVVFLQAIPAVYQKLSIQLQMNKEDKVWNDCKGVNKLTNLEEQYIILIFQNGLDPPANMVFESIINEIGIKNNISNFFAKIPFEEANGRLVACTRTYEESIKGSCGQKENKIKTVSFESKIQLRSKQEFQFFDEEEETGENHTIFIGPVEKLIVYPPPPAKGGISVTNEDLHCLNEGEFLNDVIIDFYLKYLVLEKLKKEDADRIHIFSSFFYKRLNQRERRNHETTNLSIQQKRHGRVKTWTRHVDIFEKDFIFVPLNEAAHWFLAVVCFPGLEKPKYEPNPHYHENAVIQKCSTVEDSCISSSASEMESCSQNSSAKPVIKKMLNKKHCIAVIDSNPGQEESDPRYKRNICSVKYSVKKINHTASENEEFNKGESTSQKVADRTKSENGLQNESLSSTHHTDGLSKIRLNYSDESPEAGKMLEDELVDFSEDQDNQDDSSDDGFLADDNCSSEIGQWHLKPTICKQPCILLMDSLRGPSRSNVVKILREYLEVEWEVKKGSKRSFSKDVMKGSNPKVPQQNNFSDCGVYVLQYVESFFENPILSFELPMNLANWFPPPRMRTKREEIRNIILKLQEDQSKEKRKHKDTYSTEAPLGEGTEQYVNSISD
The experiment in a line: SAR Analysis of small molecule inhibitors of Sentrin-specific protease 6 (SENP6) using a Luminescent assay. [Related pubchem assays (depositor defined):AID2582, AID2599]. The class given is functional.

For experiment [4], the target named is T4, RNA-binding protein pos-1 (Caenorhabditis elegans, UniProt G5EF15).
T4 sequence (G5EF15 whole entry): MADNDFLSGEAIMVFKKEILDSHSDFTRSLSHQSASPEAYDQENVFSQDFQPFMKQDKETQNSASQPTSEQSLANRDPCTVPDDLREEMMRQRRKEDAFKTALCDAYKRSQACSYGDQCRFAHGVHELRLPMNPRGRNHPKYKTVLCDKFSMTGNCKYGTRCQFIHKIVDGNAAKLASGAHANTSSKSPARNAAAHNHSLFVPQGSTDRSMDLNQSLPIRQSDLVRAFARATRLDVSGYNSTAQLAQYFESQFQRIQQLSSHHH
The experiment can be described thus: disruptors of C. elegans POS-1 RNA interaction – biochemical, fluorescence polarization, dose response (AID 1964).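 Also: purified POS-1 fused to maltose binding protein made in E. coli; potency of compounds blocking POS-1 binding to fluorescent RNA.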

Chain of Paired box protein Pax-8 (Q06710 whole entry): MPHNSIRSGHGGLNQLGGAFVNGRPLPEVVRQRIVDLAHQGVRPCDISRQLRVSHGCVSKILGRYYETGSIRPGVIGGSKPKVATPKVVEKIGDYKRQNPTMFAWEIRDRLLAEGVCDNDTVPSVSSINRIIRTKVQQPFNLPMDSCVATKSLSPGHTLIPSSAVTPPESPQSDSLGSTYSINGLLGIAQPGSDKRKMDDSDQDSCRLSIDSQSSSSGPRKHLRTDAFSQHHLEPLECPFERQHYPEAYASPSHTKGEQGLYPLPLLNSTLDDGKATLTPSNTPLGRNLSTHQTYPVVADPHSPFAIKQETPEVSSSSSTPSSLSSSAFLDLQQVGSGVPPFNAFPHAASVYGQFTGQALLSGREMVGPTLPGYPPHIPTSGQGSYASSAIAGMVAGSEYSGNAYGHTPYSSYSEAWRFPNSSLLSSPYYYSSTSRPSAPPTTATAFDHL

One may read the EC50 as the midpoint of the concentration-response curve. Usually AC50 stands for the midpoint of the concentration-response curve, whichever way the signal moves. Consider `Cc1nn(-c2ccccc2)c(Cl)c1CN(C(=O)CCl)c1ccc(Cl)cc1`, for which the EC50 with BJ was 3.36 µM (inconclusive); in experiment [1], 0.237 µM (active); in experiment [2], 4.07 µM (active). Besides, at Paired box protein Pax-8, the AC50 was 3.19 µM (active).
One may read the IC50 as the concentration at which inhibition is half-maximal. As for `Oc1ccccc1/C=C/c1noc(-c2ccccc2O)n1`, the IC50 at Caspase-3 is 21 µM (active); in experiment [3], > 99 µM (inactive).
For the compound `O=C(O)CSc1cc(NS(=O)(=O)c2ccc(Cl)cc2)c2ccccc2c1O`, the EC50 in experiment [4] is 36.8 µM (active).
